# Experimental data: patent publication US9469645B2, “Compounds and compositions for the treatment of parasitic diseases” (Novartis AG, priority 2009, dated 2016)
# Where two headings read alike, the source gives them in different places.
# How the values were obtained:
# 3D7 P. falciparum strain = test: parasite proliferation assay in infected red blood cells (SYBR Green I); assay type: cell-based, Plasmodium falciparum; details: 3D7 strain, read-out: EC50 3D7 strain
# Description: (§1) Compounds of the invention can be assayed to measure their capacity to inhibit proliferation of parasitemia in infected red blood cells. The proliferation is quantified by the addition of SYBR Green I (INVITROGEN)® dye which has a high affinity for double stranded DNA.
# The following assay illustrates the invention without in any way limiting the scope of the invention. This parasite proliferation assay measures the increase in parasite DNA content using a DNA intercalating dye, SYBR Green®.
# 3D7 P. falciparum strain is grown in complete culturing media until parasitemia reaches 3% to 8% with O+ human erythrocytes. 20 μl of screening media is dispensed into 384 well assay plates. […] 10 μl of lysis buffer (saponin, triton-X, EDTA) containing a 10× solution of SYBR Green I® in RPMI media is dispensed into the plates. The plates are lidded and kept at room temperature overnight for the lysis of the infected red blood cells.
# W2 strain = test: parasite proliferation assay in infected red blood cells (SYBR Green I), W2 strain; assay type: cell-based
# Description: as §1
# [1] = Plasmodium falciparum, 3D7, Erythrocyte
Compound,EC50 (3D7 P. falciparum strain; [1]) [nM],EC50 (W2 strain; Erythrocyte) [nM],EC50 (3D7 P. falciparum strain) [nM],EC50 (W2 strain) [nM]
CC(C)(N)C(=O)N1CCn2c(nc(C3CCCCC3)c2Nc2ccc(F)cc2)C1 [Compound 15],2630,2110,,
CC(C)(N)C(=O)N1CCn2c(nc(-c3ccc(F)cc3)c2Nc2cccnc2)C1 [Compound 16],14100,3320,,
C[C@H](N)C(=O)N1CCn2c(nc(-c3ccc(F)cc3)c2Nc2ccc(F)cc2)C1 [Compound 17],90,64,,
NCCCC(=O)N1CCn2c(nc(-c3ccc(F)cc3)c2Nc2ccc(F)cc2)C1 [Compound 18],12300,8140,,
N[C@@H](Cc1ccccc1)C(=O)N1CCn2c(nc(-c3ccc(F)cc3)c2Nc2ccc(F)cc2)C1 [Compound 19],70,59,,
N[C@H](Cc1ccccc1)C(=O)N1CCn2c(nc(-c3ccc(F)cc3)c2Nc2ccc(F)cc2)C1 [Compound 20],110,121,,
CC(C)(N)C(=O)N1CCn2c(nc(-c3ccc(F)cc3)c2Nc2ccc(Br)cc2)C1 [Compound 21],100,78,,
CN(C)CC(=O)N1CCn2c(nc(-c3ccc(F)cc3)c2Nc2ccc(F)cc2)C1 [Compound 22],1300,691,,
CC(C)(N)C(=O)N1CCn2c(nc(-c3ccc(F)cc3)c2NCc2ccccc2)C1 [Compound 23],> 10600,10500,,
Cc1ccc(-c2c(-c3ccc(Cl)cc3)nc3cnccn23)cc1 [Compound 24],8920,2860,,
CC(=O)NCC(=O)N1CCn2c(nc(-c3ccc(F)cc3)c2Nc2ccc(F)cc2)C1 [Compound 25],> 10600,4350,,
CC(C)(N)C(=O)N1CCn2c(nc(-c3ccc(F)cc3)c2NC2CCCCC2)C1 [Compound 27],9610,5980,,
NCC(=O)N1CCn2c(nc(-c3ccc(F)cc3)c2Nc2ccc(F)c(F)c2)C1 [Compound 30],30,23,,
CC(C)(N)C(=O)N1CCn2c(nc(-c3ccc(F)cc3)c2-c2ccc(F)cc2)C1 [Compound 31],13100,6890,,
O=C(CN1CCCC1)N1CCn2c(nc(-c3ccc(F)cc3)c2Nc2ccc(F)cc2)C1 [Compound 33],740,1620,,
NCCC(=O)N1CCn2c(nc(-c3ccc(F)cc3)c2Nc2ccc(F)cc2)C1 [Compound 34],70,75,,
CC(C)(N)C(=O)N1CCn2c(nc(-c3ccc(F)cc3)c2Nc2cccc(F)c2)C1 [Compound 35],120,105,,
NCC(=O)N1CCn2c(nc(-c3ccc(F)cc3)c2Nc2cccc(F)c2)C1 [Compound 36],50,34,,
CC(C)(N)C(=O)N1CCn2c(nc(-c3ccc(F)cc3)c2Nc2ccc(Cl)cc2)C1 [Compound 39],20,24,,
NCC(=O)N1CCn2c(nc(-c3ccc(F)cc3)c2Nc2ccc(Cl)cc2)C1 [Compound 40],10,9,,
O=C(CN1CCOCC1)N1CCn2c(nc(-c3ccc(F)cc3)c2Nc2ccc(F)cc2)C1 [Compound 41],2650,1790,,

Compound,EC50 (3D7 P. falciparum strain; [1]) [nM],EC50 (W2 strain; Erythrocyte) [nM],EC50 (3D7 P. falciparum strain) [nM],EC50 (W2 strain) [nM]
O=C(CN1CCS(=O)(=O)CC1)N1CCn2c(nc(-c3ccc(F)cc3)c2Nc2ccc(F)cc2)C1 [Compound 42],6100,4610,,
O=C(CN1CCCC(F)(F)C1)N1CCn2c(nc(-c3ccc(F)cc3)c2Nc2ccc(F)cc2)C1 [Compound 43],180,149,,
NC1(C(=O)N2CCn3c(nc(-c4ccc(F)cc4)c3Nc3ccc(F)cc3)C2)CC1 [Compound 45],980,1340,,
Cc1ccc(-c2c(-c3ccc(Cl)cc3)nc3n2CCN(C(=O)C(C)(C)N)C3)cc1 [Compound 47],6980,6180,,
Fc1ccc(Nc2c(-c3ccc(F)cc3)nc3n2CCN(Cc2ccccc2)C3)cc1 [Compound 48],1840,1750,,
O=C(NCC(=O)N1CCn2c(nc(-c3ccc(F)cc3)c2Nc2ccc(F)cc2)C1)OCc1ccccc1 [Compound 49],2290,1900,,
NC(C(=O)N1CCn2c(nc(-c3ccc(F)cc3)c2Nc2ccc(F)cc2)C1)C(F)(F)F (stereo not shown) [Compound 50],180,187,,
NCC(=O)N1CCn2c(nc(-c3ccc(F)cc3O)c2Nc2ccc(F)cc2)C1 [Compound 51],70,62,,
Cc1ccc(-c2nc3n(c2Nc2ccc(F)cc2)CCN(C(=O)CN)C3)cc1 [Compound 52],3140,3360,,
COc1ccc(-c2nc3n(c2Nc2ccc(F)cc2)CCN(C(=O)CN)C3)cc1 [Compound 53],2270,1700,,
NCC(=O)N1CCn2c(nc(-c3ccc(Br)cc3)c2Nc2ccc(F)cc2)C1 [Compound 54],1290,764,,
NCC(=O)N1CCn2c(nc(-c3ccc(Cl)cc3)c2Nc2ccc(F)cc2)C1 [Compound 55],660,437,,
NCC(=O)N1CCn2c(nc(-c3cccc(F)c3)c2Nc2ccc(F)cc2)C1 [Compound 56],10,13,,
O=C(CN1CCC(F)(F)C1)N1CCn2c(nc(-c3ccc(F)cc3)c2Nc2ccc(F)cc2)C1 [Compound 57],310,294,,
O=C(CN1CC[C@@H](F)C1)N1CCn2c(nc(-c3ccc(F)cc3)c2Nc2ccc(F)cc2)C1 [Compound 58],470,280,,
O=C(CN1CC[C@H](F)C1)N1CCn2c(nc(-c3ccc(F)cc3)c2Nc2ccc(F)cc2)C1 [Compound 59],1090,735,,
O=C(CN1CCC(F)CC1)N1CCn2c(nc(-c3ccc(F)cc3)c2Nc2ccc(F)cc2)C1 [Compound 60],2460,2130,,
O=C(CN1CCC(F)(F)CC1)N1CCn2c(nc(-c3ccc(F)cc3)c2Nc2ccc(F)cc2)C1 [Compound 62],4740,4740,,
O=C(CN1CCCC(C(F)(F)F)C1)N1CCn2c(nc(-c3ccc(F)cc3)c2Nc2ccc(F)cc2)C1 (stereo not shown) [Compound 63],1950,1610,,
O=C(CN1CCCC(O)C1)N1CCn2c(nc(-c3ccc(F)cc3)c2Nc2ccc(F)cc2)C1 (stereo not shown) [Compound 64],9370,6460,,
O=C(CNCC(F)F)N1CCn2c(nc(-c3ccc(F)cc3)c2Nc2ccc(F)cc2)C1 [Compound 65],470,509,,

Compound,EC50 (3D7 P. falciparum strain; [1]) [nM],EC50 (W2 strain; Erythrocyte) [nM],EC50 (3D7 P. falciparum strain) [nM],EC50 (W2 strain) [nM]
CC(C)(N)C(=O)N1CCn2c(nc(-c3ccc(F)cc3)c2Nc2cc(F)cc(F)c2)C1 [Compound 66],220,244,,
NCC(=O)N1CCn2c(nc(-c3ccc(F)cc3)c2Nc2cc(F)cc(F)c2)C1 [Compound 67],190,197,,
O=C(CNC1CC1)N1CCn2c(nc(-c3ccc(F)cc3)c2Nc2ccc(F)cc2)C1 [Compound 68],150,264,,
CC(C)CNCC(=O)N1CCn2c(nc(-c3ccc(F)cc3)c2Nc2ccc(F)cc2)C1 [Compound 69],80,94,,
CC(C)(N)C(=O)N1CCn2c(nc(-c3ccc(F)cc3)c2Nc2ccc(C(F)(F)F)cc2)C1 [Compound 72],950,589,,
NCC(=O)N1CCn2c(nc(-c3ccc(F)cc3)c2Nc2ccc(C(F)(F)F)cc2)C1 [Compound 73],80,59,,
Cc1ccc(Nc2c(-c3ccc(F)cc3)nc3n2CCN(C(=O)CN2CCCC(F)(F)C2)C3)cc1 [Compound 74],70,67,,
CNCC(=O)N1CCn2c(nc(-c3ccc(F)cc3)c2Nc2ccc(C)cc2)C1 [Compound 75],250,190,,
O=C(CN1CCCC(F)(F)C1)N1CCn2c(nc(-c3ccc(F)cc3)c2Nc2ccc(Cl)cc2)C1 [Compound 76],60,61,,
CNCC(=O)N1CCn2c(nc(-c3ccc(F)cc3)c2Nc2ccc(Cl)cc2)C1 [Compound 77],60,39,,
CC(C)(N)C(=O)N1CCn2c(nc(-c3ccc(F)cc3)c2Nc2ccc(F)cc2F)C1 [Compound 79],110,90,,
NCC(=O)N1CCn2c(nc(-c3ccc(F)cc3)c2Nc2ccc(F)cc2F)C1 [Compound 80],60,63,,
Cc1ccc(Nc2c(-c3ccc(F)cc3)nc3n2CCN(C(=O)[C@H](C)O)C3)cc1 [Compound 81],300,449,,
Cc1ccc(Nc2c(-c3ccc(F)cc3)nc3n2CCN(C(=O)[C@H](C)N)C3)cc1 [Compound 83],80,131,,
Cc1ccc(Nc2c(-c3ccc(F)cc3)nc3n2CCN(C(=O)[C@@H](C)N)C3)cc1 [Compound 84],50,74,,
CC[C@H](N)C(=O)N1CCn2c(nc(-c3ccc(F)cc3)c2Nc2ccc(C)cc2)C1 [Compound 85],20,31,,
Cc1ccc(Nc2c(-c3ccc(F)cc3)nc3n2CCN(C(=O)C2CCCNC2)C3)cc1 (stereo not shown) [Compound 86],,,710,755
Cc1ccc(Nc2c(-c3ccc(F)cc3)nc3n2CCN(C(=O)C2CCCNC2)C3)cc1 (stereo not shown) [Compound 87],,,20,12
CCN(CC)CCN1CCn2c(nc(-c3ccc(F)cc3)c2Nc2ccc(C)cc2)C1 [Compound 88],150,81,,
Cc1ccc(Nc2c(-c3ccc(F)cc3)nc3n2CCN(C(=O)[C@H]2CCN2)C3)cc1 [Compound 89],50,73,,
